The source of these data is patent US20080269286A1, “Disubstituted Phenylpiperidines as Modulators of Cortical Catecholaminergic Neurotransmission” (priority 2005, published 2008).

Counter-ions that a name gives are not always drawn.

One may read the melting point as the temperature, or range, at which the solid turns liquid.

In series [1] the test system is DOPAC levels (3,4-dihydroxyphenylacetic acid) in the rat striatum. Description: In vivo test: neurochemistry, tissue content of DOPAC in the striatum. Particulars: sc, 1 h, 100 μmol/kg s.c., 60 minutes after administration, %-increase from control value. As for the experimental part: In short, male Sprague-Dawely rats are administered the test compound 60 minutes prior to decapitation. The brain is rapidly taken out and dissected. The striatum is rapidly frozen and subsequently quantitatively analysed with respect to its content of DOPAC by means of HPLC and electrochemical detection. The number of animals used for each test compound/vehicle is 4/group.
Male Sprague-Dawley rats weighing 220-320 g are used throughout the experiments. Sixty (60) minutes following administration of the test substance, the rats are decapitated. Directly after decapitation the brain is removed from the skull and put on a glass petri bowl filled with ice. The limbic system (containing the nucleus accumbens—both the core and shell, most parts of the olfactory tubercle and ventral pallidum) is dissected using two thin, angled tweezers and put directly on foil on dry ice (carbon dioxide −78° C.). The striatum and cortex are then dissected and also put on dry ice. The time from decapitation until the last tissue is dissected varies from four to six minutes. The tissue is weighed using a Sartorius BP3105 connected to a computer and packed in labelled tin foil, then stored in an −80° C. freezer. Great care is taken in order to keep the tissue frozen until the time of neurochemical analysis. Each brain part is subsequently analyzed with respect to its content of monoamines and their metabolites.
The monoamine transmitter substances (NE (norepinephrine), DA (dopamine), 5-HT (serotonin)) as well as their amine (NM (normethanephrine), 3-MT (3-methoxytyramine)) and acid (DOPAC (3,4-dihydroxyphenylacetic acid), 5-HIAA (5-hydroxyindoleacetic acid), HVA (homovanillic acid)) metabolites are quantified in brain tissue homogenates by HPLC separations and electrochemical detection.
The analytical method is based on two chromatographic separations dedicated for amines or acids. Two chromatographic systems share a common auto injector with a 10-port valve and two sample loops for simultaneous injection on the two systems. Both systems are equipped with a reverse phase column (Luna C18(2), dp 3 μm, 50*2 mm i.d., Phenomenex) and electrochemical detection is accomplished at two potentials on glassy carbon electrodes (MF-1000. Bioanalytical Systems, Inc.). The column effluent is passed via a T-connection to the detection cell or to a waste outlet. This is accomplished by two solenoid valves, which block either the waste or detector outlet. By preventing the chromatographic front from reaching the detector, better detection conditions are achieved. […] Detection potentials relative to Ag/AgCl reference are 0.45 and 0.60V. […] Detection potentials relative to Ag/AgCl reference are 0.45 and 0.65V.

In series [2] the test system is extracellular levels of dopamine and norepinephrine. The series is described as follows: In vivo test: microdialysis, extracellular monoamines in striatum and prefrontal cortex. Set-up: species or system rat. To be noted: awake and freely moving rats; for levels of dopamine and norepinephrine in the cortex (microdialysis): 50 μmol/kg s.c., pf. cortex, FIGS. 11-24. The text has this:
The microdialysis technique (Ungerstedt, Herrera-Marschitz et al. 1982) is a well established technique for measuring extracellular levels of neurotransmitters (Ungerstedt 1991). The microdialysis technique was used to measure the effect of drugs upon the monoamine transmitters. The appended graphs (FIGS. 9 and 10) show the effects of one established antidepressant (mirtazapine) upon monoamines in the striatum and frontal cortex, as well as for seven compounds claimed in the present invention (FIGS. 11-24; Examples 1, 3, 4, 6, 9, 10 and 11). The number of animals (n) used for each compound tested is noted in the figure legend.
Male Sprague-Dawley rats weighing 220-320 g were used throughout the experiments. Before the experiment the animals were group housed, five animals in each cage, with free access to water and food. The animals were housed at least one week after arrival prior to surgery and use in the experiments. Each rat was used only once for microdialysis. We use a modified version (Waters, Lofberg et al. 1994) of the I-shaped probe (Santiago and Westerink 1990). The dialysis membrane we use is the AN69 polyacrylonitrile/sodium methalylsulfonate copolymer (HOSPAL; o.d./i.d. 310/220 μm: Gambro, Lund, Sweden). In the dorsal striatum we use probes with an exposed length of 3 mm of dialysis membrane and in the prefrontal cortex the corresponding length is 2.5 mm. The rats were operated under isoflurane inhalation anesthesia while mounted into a Kopf stereotaxic instrument. Coordinates were calculated relative to bregma; dorsal striatum AP+1, ML±2.6, DV−6.3; Pf cortex, AP+3.2, 8° ML±1.2, DV−4.0 according to (Paxinos and Watson 1986). The dialysis probe was positioned in a burr hole under stereotaxic guidance and cemented with phosphatine dental cement.
The rats were housed individually in cages for 48 h before the dialysis experiments, allowing them to recover from surgery and minimizing the risk of drug interactions with the anaesthetic during the following experiments. During this period the rats had free access to food and water. On the day of experiment the rats were connected to a micro perfusion pump via a swivel and were replaced in the cage where they could move freely within its confinements. The perfusion medium was a Ringer's solution containing in mmol/l: NaCl; 140, CaCl2; 1.2, KCl; 3.0, MgCl2; 1.0 and ascorbic acid; 0.04 according to (Moghaddam and Bunney 1989). The pump was set to a perfusion speed of 2 μl/min and 40 μl samples were collected every 20 min.
30 μl of each sample was injected into the chromatograph. On a 10-port injector (Valco C10W), with two sample loops mounted in series (2 μl and 20 μl), each brain dialysate sample is loaded in both loops simultaneously. When the valve is switched to inject the main part of the 20 μl sample is introduced into a reverse-phase ion-pairing system for dopamine (DA), norepinephrine (NE), normetanephrine (NM), 3-methoxytyramine (3-MT) and serotonin (5-hydroxytryptamine, 5-HT) determination (large loop), while a small fraction (2 μl, from the small loop) is introduced on a reverse-phase column for the chromatography of the acidic monoamine metabolites 3,4-di-hydroxyphenylacetic acid (DOPAC), homovanillic acid (HVA) and 5-hydroxyindoleacetic acid (5-HIAA). The currents generated by the two EC detectors are converted to digital data and evaluated using Chromelion software (Dionex, Sunnyvale, Calif.) on a PC. The method sample turn over time was 4.5 min and two parallel experiments are normally analysed simultaneously on the system. After the experiment the rats were uncoupled from the perfusion pump and decapitated. Their brains were rapidly taken out and fixed in Neo-fix solution (Kebo-lab, Sweden) for subsequent inspection of probe localisation. The Animal Ethics Committee in Göteborg, Sweden approved the procedures applied in these experiments. • Moghaddam, B. and B. S. Bunney (1989). […]

`CCCN1CCC(c2ccc(F)c(C(F)(F)F)c2)CC1` [reference compound]: the change in vivo at 100 µmol/kg in series [1] was 94%.

Regarding `Fc1ccc(C2CCNCC2)cc1C(F)(F)F` (as salt: hydrochloric acid salt), the melting point fell in the range of 195 to 196 °C.

For the compound `CCN1CCC(c2ccc(F)c(C(F)(F)F)c2)CC1` [reference compound], the change in vivo at 100 µmol/kg in series [1] stood at 75%.

In turn, `Fc1cc(F)cc(C2CCNCC2)c1` (as salt: fumaric acid salt) [Example 3, 4-(3,5-DIFLUOROPHENYL)PIPERIDINE] displayed a melting point of 178 °C.

Take `Fc1cc(F)cc(C2CCNCC2)c1` [Example 3, 4-(3,5-DIFLUOROPHENYL)PIPERIDINE]: the “levels of dopamine and norepinephrine in the cortex (microdialysis)” value (“levels of dopamine and norepinephrine” below) in series [2] was “elevate the levels of dopamine and norepinephrine in the cortex”.

For `Fc1ccc(C2CCNCC2)cc1Cl` [Example 9, 4-(3-CHLORO-4-FLUOROPHENYL)PIPERIDINE], the “levels of dopamine and norepinephrine” value in series [2] is “elevate the levels of dopamine and norepinephrine in the cortex”.

As to `CN1CCC(c2ccc(F)cc2F)CC1` (as salt: hydrochloric acid salt) [Example 11, 4-(2,4-DIFLUOROPHENYL)-1-METHYLPIPERIDINE], the melting point came to 198 °C.

As for `Clc1ccc(C2CCNCC2)cc1Cl` [drawing 16], in series [1], the change in vivo at 100 µmol/kg was -14%.

Consider `Fc1ccc(C2CCNCC2)cc1Cl` (as salt: oxalic acid salt) [Example 9, 4-(3-CHLORO-4-FLUOROPHENYL)PIPERIDINE], for which the melting point turned out to be 147 °C.

As for `CCCN1CCC(c2ccc(Cl)c(C(F)(F)F)c2)CC1` [reference compound], in series [1], the change in vivo at 100 µmol/kg was found to be 94%.

Take `CCCN1CCC(c2cc(F)cc(C(F)(F)F)c2)CC1` [reference compound]: the change in vivo at 100 µmol/kg in series [1] is 239%.

Take `Fc1ccc(C2CCNCC2)c(F)c1` [Example 1, 4-(2,4-DIFLUOROPHENYL)PIPERIDINE]: the “levels of dopamine and norepinephrine” value in series [2] is “elevate the levels of dopamine and norepinephrine in the cortex”.

On to `Fc1ccc(C2CCNCC2)cc1F` [Example 4, 4-(3,4-DIFLUOROPHENYL)PIPERIDINE], for which the “levels of dopamine and norepinephrine” value in series [2] was “elevate the levels of dopamine and norepinephrine in the cortex”.

For `Fc1cc(Cl)cc(C2CCNCC2)c1` [drawing 18], in series [1], the change in vivo at 100 µmol/kg is -26%.

Compound `Clc1ccc(C2CCNCC2)cc1Cl` (as salt: hydrochloric acid salt) [Example 6, 4-(3,4-DICHLOROPHENYL)PIPERIDINE] came in with a melting point of 170 °C.

`Fc1ccc(C2CCNCC2)cc1F` (as salt: hydrochloric acid salt) [Example 4, 4-(3,4-DIFLUOROPHENYL)PIPERIDINE] had a melting point of 255 to 256 °C.

For the compound `Fc1cc(F)cc(C2CCNCC2)c1` [drawing 15], in series [1], the change in vivo at 100 µmol/kg was -19%.

Take `Fc1ccc(C2CCNCC2)cc1Cl` [drawing 17]: the change in vivo at 100 µmol/kg in series [1] is -29%.

As to `Fc1cc(Cl)cc(C2CCNCC2)c1` [Example 10, 4-(3-CHLORO-5-FLUOROPHENYL)PIPERIDINE], the “levels of dopamine and norepinephrine” value in series [2] was “elevate the levels of dopamine and norepinephrine in the cortex”.

With `CN1CCC(c2ccc(F)cc2F)CC1` [drawing 19], the change in vivo at 100 µmol/kg in series [1] was -41%.

In the case of `Fc1ccc(C2CCNCC2)c(F)c1` [drawing 13], the change in vivo at 100 µmol/kg in series [1] is -36%.

Turning to `Fc1cc(Cl)cc(C2CCNCC2)c1` (as salt: hydrochloric acid salt) [Example 10, 4-(3-CHLORO-5-FLUOROPHENYL)PIPERIDINE], the melting point was 243 °C.

Compound `Fc1ccc(C2CCNCC2)c(F)c1` (as salt: hydrochloric acid salt) [Example 1, 4-(2,4-DIFLUOROPHENYL)PIPERIDINE] displayed a melting point of 256 to 258 °C.

Regarding `CN1CCC(c2ccc(F)cc2F)CC1` [Example 11, 4-(2,4-DIFLUOROPHENYL)-1-METHYLPIPERIDINE], in series [2], the “levels of dopamine and norepinephrine” value was “elevate the levels of dopamine and norepinephrine in the cortex”.

Turning to `Clc1ccc(C2CCNCC2)cc1Cl` [Example 6, 4-(3,4-DICHLOROPHENYL)PIPERIDINE], the “levels of dopamine and norepinephrine” value in series [2] was “elevate the levels of dopamine and norepinephrine in the cortex”.

For `CN1CCN2c3ncccc3Cc3ccccc3C2C1` (centres unmarked) [mirtazapine, reference compound], the “extracellular norepinephrine and dopamine in the cortex (microdialysis)” value in series [2] (10 mg/kg s.c., p.f. cortex, FIG. 10) is “increase predominantly extracellular norepinephrine and dopamine in the cortex”.

In the case of `CCCN1CCC(c2cccc(S(C)(=O)=O)c2)CC1` [reference compound], the change in vivo at 100 µmol/kg in series [1] turned out to be 114%.

Consider `Fc1ccc(C2CCNCC2)cc1C(F)F`, for which, in series [1], the change in vivo at 100 µmol/kg is 17%.

Turning to `CCN1CCC(c2cc(F)cc(C(F)(F)F)c2)CC1` [reference compound], the change in vivo at 100 µmol/kg in series [1] was 232%.
